The source of these data is article PMC9737184, “In Vitro Study of Cytotoxic Mechanisms of Alkylphospholipids and Alkyltriazoles in Acute Lymphoblastic Leukemia Models” (Molecules, 2022).

Some results are limits rather than exact numbers.

Usually EC50 stands for the concentration that produces a half-maximal response. In general, IC50 refers to the concentration that inhibits the measured activity by half. Low readings indicate inhibition by little substance, high ones a need for much substance. One may read the Ki as a measure of affinity in units of concentration, obtained from inhibition or displacement. Lower therefore signals a stronger hold on the target.

Data set [1] has as its system Jurkat (acute lymphoblastic leukemia). Briefly: Annexin V-FITC/PI cytotoxicity, concentration-response. The note with it: Homo sapiens, Jurkat cells, 24 h. It counts as cell-based. The protocol:
(§1) Figure 2 Effects of the alkyltriazole compounds C9 and C21 on the viability of different myeloblastic and lymphoblastic leukemia lineages. Lineages cells at 2 × 10^5 cells/mL were used. Cells were exposed to concentrations ranging from 0 to 150 µM for 24 h, and cell viability was assessed by annexin V-FITC/PI staining and flow cytometric analysis. (A) Chemical structure of C9, with a hydroxyl group and an iodine atom as substituents.
(§2) Human leukemia cell lines (Kasumi-1, K-562, ARH-77, Jurkat and CCRF-CEM, see Table S2) were purchased from American Type Culture Collection-ATCC (Manassas, VA, USA). The cells were maintained in RPMI 1640 (Sigma-Aldrich, Burlington, MA, USA) culture medium, supplemented with 10% fetal bovine serum, 100 U/mL penicillin (Sigma-Aldrich, Burlington, MA, USA) and 100 µg/mL streptomycin (Sigma-Aldrich, Burlington, MA, USA). Cells were cultured in a humidified atmosphere at 37 °C and 5% CO2.
(§3) Leukemia or PBMC cells (2 × 10^5 cells/mL) were incubated for 24 h in both the absence and presence of compounds. PBMCs were also treated with vinblastine (Sigma-Aldrich, Burlington, MA, USA) for 24 h as the positive control. Then, the cells were centrifuged and resuspended in binding buffer (0.01 M HEPES, pH 7.4, containing 0.14 M NaCl, and 2.5 mM CaCl2) and incubated at room temperature with annexin V-FITC (BD Biosciences, San Jose, CA, USA) and 5 µg/mL PI (Sigma-Aldrich, Burlington, MA, USA) for 20 min. Sample analysis was performed using an Accuri C6 flow cytometer (BD Biosciences, San Jose, CA, USA) with the acquisition value of 10,000 events.

Data set [2] concerns Kasumi-1 (acute myeloblastic leukemia). The description is as above. The format is cell-based. The note with it: Homo sapiens, Kasumi cells, 24 h. The method, then: as §1, §2, §3
The test system of data set [3] is K562 (chronic myeloblastic leukemia). The data set is described as above. It counts as cell-based. The note with it: Homo sapiens, K562 cells, 24 h. The protocol: as §1, §2, §3
For data set [4], the system named is CCRF-CEM (acute lymphoblastic leukemia). The description is as above. It counts as cell-based. The conditions noted are these: Homo sapiens, CCRF-CEM cells, 24 h. The method, then:
as §1, §2, §3

In data set [5] the test system is ARH-77 (plasma cell leukemia). The description is as above. It counts as cell-based. The note with it: Homo sapiens, ARH-77 cells, 24 h. The protocol:
as §1, §2, §3

Another data set has as its system PBMCs. Briefly: Annexin V-FITC/PI cytotoxicity on healthy control cells. The conditions noted are these: for cytotoxicity to PBMCs compared with vinblastine: 24 h of exposure at different concentrations; for sensitivity of PBMCs compared with the tumor lineages: healthy control cells, 24 h. The format is cell-based, human.
Source text: Blood was collected using EDTA Vacuum Blood Collection Tubes. Peripheral blood mononuclear cells were isolated from three normal healthy individuals after they provided informed consent and after prior approval by the local Ethics Committee of University of Mogi das Cruzes (ethical appreciation number 72986617.3.0000.5497, and approval number 2.236.397). The fraction of mononuclear cells was separated from the blood by centrifugation with Ficoll-Histopaque-1077 (density 1.077 g/mL, Sigma-Aldrich, Burlington, MA, USA) at 400× g for 30 min. Mononuclear cells were maintained in 100 U/mL penicillin and […] streptomycin in an incubator with a humidified atmosphere at 37 °C and 5% CO2.
as §3, with “events. […]” for “events.”
Figure S3. Concentration-response curve of cytotoxicity of compounds C9, C21 and vinblastine on PBMCs. PBMCs cells were cultured (2x10^5 cells/mL) on 96-well microplates. The cells were treated with compounds C9 ([…]) and C21 (≤), and vinblastine ([…]) (Sigma-Aldrich, Germany) for 24 h. After, the cells were labeled with Annexin V-FITC and 5 μg/mL PI. The results were expressed as percent-age. The data are the mean ± SEM of 3 experiments performed in duplicate.

The target of data set [6] is T1, cathepsin B (Homo sapiens, UniProt P07858). Briefly: Cathepsin B inhibition, Z-FR-AMC fluorogenic assay (IC50). It counts as biochemical. The conditions noted are these: Z-FR-AMC 50 µM, pH 5.5, 37 °C. The method, then: (§4) Cathepsin L was assayed in a reaction buffer of 100 mM sodium acetate, containing 100 mM NaCl, 5 mM EDTA and 20% glycerol at pH 5.5. Cathepsin B was assayed in the same buffer supplemented with 0.01% Triton X-100. The enzymes were pre-incubated in the presence of 3 mM DTT for 5 min at 37 °C in a 1 mL final volume with constant stirring. The enzyme activities were monitored using the fluorogenic probe Z-FR-AMC (50 µM and 5 µM for cathepsin B and L, respectively), and the fluorescence was monitored by spectrofluorometry using the fluorometer RF6000 (Shimadzu, Tokyo, Japan) set to λEx = 360 nm and λEm = 480 nm. […] The data were analyzed by Grafit 5.0.13 software using Equation (1). (1) y=100%/1+(x/IC50)^S

The test system of data set [7] is Jurkat and CCRF-CEM lineages. Briefly: Annexin V-FITC/PI cytotoxicity, EC50 span over ALL lineages (discussion). The format is cell-based. The note with it: Homo sapiens. The protocol:
as §1, §2
Leukemia or PBMC cells (2 × 10^5 cells/mL) were incubated for 24 h in both the absence and presence of compounds. PBMCs were also treated with vinblastine (Sigma-Aldrich, Burlington, MA, USA) for 24 h as the positive control. […]

Data set [8] has as its system cleaved caspase-3 in CCRF-CEM cells. Briefly: Cleaved caspase-3 by flow cytometry. It counts as cell-based, human. The note with it: 12 h of treatment, EC50 of the compounds. The method, then:
(§5) Jurkat and CCRF-CEM cells (2 × 10^5 cells/mL) were treated with C9 and C21 compounds for 12 h. Then, the cells were centrifuged, washed, fixed with 2% paraformaldehyde in PBS for 30 min and permeabilized with 0.01% saponin in PBS for 15 min at room temperature. Afterwards, the cells were incubated for 1 h at 37 °C with anti-cleaved-caspase 3-FITC monoclonal antibodies (Cell Signaling, Danvers, MA, USA) or mouse anti-cleaved PARP-PE/CF594 (Asp^214) antibodies (BD Biosciences, San Jose CA, USA). After incubation, the fluorescence was analyzed using an Accuri C6 flow cytometer (BD Biosciences, San Jose, CA, USA). A total of 10,000 events were acquired per sample.

Data set [9] concerns cleaved caspase-3 in Jurkat cells. Briefly: Cleaved caspase-3 by flow cytometry. The format is cell-based, human. The conditions noted are these: 12 h of treatment, EC50 of the compounds. The method, then:
as §5

For data set [10], the system named is PARP-1 cleavage in CCRF-CEM cells. Description: Cleaved PARP by flow cytometry. It counts as cell-based, human. The conditions noted are these: 12 h of treatment, EC50 of the compounds. The method, then: as §5
On the technique in general: In flow cytometry, cells or beads pass a laser one at a time.

In data set [11] the test system is PARP-1 cleavage in Jurkat cells. Description: Cleaved PARP by flow cytometry. It counts as cell-based, human. The conditions noted are these: 12 h of treatment, EC50 of the compounds. The method, then: as §5
Data set [12] has as its target T2, cathepsin L (Homo sapiens, UniProt P07711). Description: Cathepsin L inhibition kinetics and mechanism. The format is biochemical. The note with it: Cat L; for Mec. (mechanism of inhibition): SLNC = simple linear non-competitive, SLC = simple linear competitive. The method, then:
(§6) For every kinetic measurement, the compounds were pre-incubated with each enzyme for 10 min before adding the substrate. All kinetic assays were carried out in duplicate. Inhibition constants were determined using different equations, depending on the inhibition mechanism. The assumed KM values of cathepsin B and cathepsin L for Z-FR-AMC were 23.4 µM and 2 µM, respectively, as previously described. The data of the activity rate and substrate concentration generated rectangular hyperbolic profiles that were linearized using the Lineweaver–Burk/double reciprocal plot. The replot profiles of the slope vs inhibitor and intercept vs inhibitor provided the Ki and αKi parameters, respectively.

In data set [13] the target is T1, cathepsin B. Description: Cathepsin B inhibition kinetics and mechanism. It counts as biochemical. The note with it: Cat B; for Mec. (mechanism of inhibition): SLNC = simple linear non-competitive, SLC = simple linear competitive. The protocol:
as §6

The subject of another data set is CCRF-CEM cells. Description: Cytochrome c release, confocal colocalization. The format is cell-based, human. The conditions noted are these: CCRF-CEM lineage after treatment; control cells 25–35%. The method, then:
The release of cytochrome c from the mitochondria was estimated by using double-labeled confocal cell imaging with MitoTracker Green (Invitrogen, Waltham, MA, USA) and a cytochrome c antibody. Jurkat and CCRF-CEM cells (2 × 10^5 cells/mL) were incubated with C9 and C21 compounds for 12 h. Then, cells were incubated with 100 nM MitoTracker Green (Invitrogen, Waltham, MA, USA) for 30 min at 37 °C. Following this, cells were washed with PBS, fixed with 2% paraformaldehyde in PBS for 30 min and permeabilized with 0.01% saponin in PBS for 15 min. Then, the cells were incubated with a monoclonal rabbit antibody against human cytochrome c at 1:100 dilutions (0.5 μg/mL, Cell Signaling, Danvers, MA, USA) for 2 h at room temperature. […] Alexa Fluor 647 was excited using a HeNe laser (λEx = 633 nm) and its emissions were detected at 650–700 nm. MitoTracker Green was excited using an argon laser (λEx = 488 nm) and its emissions were detected at 500–550 nm. DAPI was excited with a diode laser (λEx = 405 nm) and its emissions were detected at […]. […]
The quantitative evaluation of colocalization was performed by using the percentage of colocalized between channels, which correspond to the pixels with red fluorescence and green or blue fluorescence. […] The colocalization coefficient was calculated using the Imaris software.

Data set [14] addresses T2, cathepsin L. Description: Cathepsin L inhibition, Z-FR-AMC fluorogenic assay (IC50). The format is biochemical. The note with it: Z-FR-AMC 5 µM, pH 5.5, 37 °C. The method, then: as §4
Data set [15] relates to T-cell lymphomas lineages. Also on record: method as in PMID 24225136. The note with it: cited from earlier work.

T2 sequence (P07711 114-333): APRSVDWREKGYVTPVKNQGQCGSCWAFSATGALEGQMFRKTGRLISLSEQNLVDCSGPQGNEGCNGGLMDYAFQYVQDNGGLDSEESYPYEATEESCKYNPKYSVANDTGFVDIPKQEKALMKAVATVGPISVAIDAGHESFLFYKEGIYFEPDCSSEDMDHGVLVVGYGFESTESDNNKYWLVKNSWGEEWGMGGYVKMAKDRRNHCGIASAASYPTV

On to `OCCCc1cn(CCCCCCCCCCCCI)nn1` [Compound 9], for which the EC50 in data set [1] is 63 ± 1 µM; in data set [2], > 140 µM; in [3] it was > 140 µM; in data set [4], 40 ± 1.2 µM; in data set [5], 71 ± 0.8 µM; in data set [7] (in Jurkat and CCRF-CEM lineages), 40 to 70 µM. Also, in the data set with PBMCs, the “cytotoxicity to PBMCs compared with vinblastine” value is “less cytotoxic than vinblastine”. Also, in the data set with PBMCs, the “sensitivity of PBMCs compared with the tumor lineages” value is “significantly less sensitive”. The IC50 amounted to 3.5 ± 0.2 µM on cathepsin B [6] and 1.3 ± 0.1 µM on cathepsin L [14]. The “cleaved caspase-3” value in [8] is listed as “less intense”; in data set [9] it was “increase”. Moreover, the PARP-1 cleavage entry in data set [10] was “did not occur”; in data set [11], “observed”. Also, the Ki worked out at 3.56 ± 0.26 µM at cathepsin L [12] and 15.3 ± 0.6 µM on cathepsin B [13]. This molecule had a αKi at cathepsin L [12] of 3.66 ± 0.07 µM. Moreover, the “Mec. (mechanism of inhibition)” value on cathepsin L [12] (listed as C9) was “simple linear noncompetitive inhibition and SLNC”; on cathepsin B [13] (listed as C9) it was “simple linear competitive inhibition and SLC”. Further, the α on cathepsin L [12] (listed as C9) was found to be 1. Besides, the “colocalization coefficient between the green and red channel” value in the data set on CCRF-CEM cells is recorded as 30–40%.
Turning to `CCCCCCCCCCCCCCCCOP(=O)([O-])OCC[N+](C)(C)C` [Compound 1, hexadecyl 2-(trimethylazaniumyl)ethyl phosphate, reference compound], the figures for the half-maximal effective concentration (EC50) in data set [1], in [4] and in [7] (against the studied lines) were 186 ± 12 µM, 120 ± 3 µM and 120 to 200 µM, respectively. Moreover, the IC50 against cathepsin B [6] came to 7.5 ± 0.1 µM; against cathepsin L [14] it was 10.5 ± 0.2 µM.
Consider `CC(=O)OCCCc1cn(CCCCCCCCCCCCOS(C)(=O)=O)nn1` [Compound 21], for which the EC50 in data set [1] is 77 ± 1.5 µM; in data set [2] it was > 140 µM; in data set [3], > 140 µM; in [4], 60 ± 2 µM; in data set [5] it was 96 ± 1 µM. In addition, the “cytotoxicity to PBMCs compared with vinblastine” value with PBMCs is “less cytotoxic than vinblastine”. Moreover, the “sensitivity of PBMCs compared with the tumor lineages” value in the data set with PBMCs was “significantly less sensitive”. The results for the IC50 against cathepsin B [6] and on cathepsin L [14] were 3.9 ± 0.2 µM and 1.6 ± 0.1 µM, respectively. Further, the “cleaved caspase-3” value in data set [8] is listed as “less intense”; in [9], “increase”. In addition, the PARP-1 cleavage result in [10] is listed as “did not occur”; in data set [11] it was “observed”. The Ki was 9.72 ± 1.23 µM at cathepsin L [12] and 27.4 ± 1.2 µM on cathepsin B [13]. For the same molecule, the αKi on cathepsin L [12] was 10.47 ± 1.17 µM; on cathepsin B [13], 43.9 ± 1.7 µM. In addition, the “Mec. (mechanism of inhibition)” value is “simple linear noncompetitive inhibition and SLNC” on cathepsin L [12] (listed as C21); “simple linear noncompetitive inhibition and SLNC” on cathepsin B [13] (listed as C21). Moreover, the results for the α at cathepsin L [12] (listed as C21) and on cathepsin B [13] were 1 and 1.6, respectively. Moreover, the “colocalization coefficient between the green and red channel” value in the data set on CCRF-CEM cells was 30–40%.
In the case of `CCCCCCCC/C=C\CCCCCCCCCCCCOP(=O)([O-])OCC[N+](C)(C)C` [erufosine], the EC50 in data set [15] is ~60 µM.
